Data as given in PubChem BioAssay (NCI).
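Briefly, cells in 96-well plates were exposed to five compound concentrations for 48 h, and endpoints were estimated by linear interpolation. GI50 = concentration required for 50% inhibition of growth. TGI: total growth inhibition.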

What was measured:
Test in all cases: inhibition of tumour cell growth, NCI panel, 48 h
SK-MEL-28 melanoma = system: SK-MEL-28 melanoma
KM12 colon = system: KM12 colon
HOP-62 NSCLC = system: HOP-62 NSCLC
SR leukemia = system: SR leukemia
NCI-H23 lung = system: NCI-H23 lung
T-47D breast = system: T-47D breast
ACHN renal = system: ACHN renal
MALME-3M melanoma = system: MALME-3M melanoma
BT-549 breast = system: BT-549 breast
SK-OV-3 ovarian = system: SK-OV-3 ovarian
UO-31 renal = system: UO-31 renal
SNB-75 CNS = system: SNB-75 CNS
SNB-19 CNS = system: SNB-19 CNS
SF-268 CNS = system: SF-268 CNS
IGROV1 ovarian = system: IGROV1 ovarian
PC-3 prostate = system: PC-3 prostate
OVCAR-4 ovarian = system: OVCAR-4 ovarian
MDA-MB-435 = system: MDA-MB-435
K-562 leukemia = system: K-562 leukemia
SK-MEL-5 melanoma = system: SK-MEL-5 melanoma
SW-620 colon = system: SW-620 colon
RXF 393 renal = system: RXF 393 renal
A498 renal = system: A498 renal
U251 CNS = system: U251 CNS
M14 melanoma = system: M14 melanoma
SN12C renal = system: SN12C renal
UACC-62 melanoma = system: UACC-62 melanoma
NCI-H226 lung = system: NCI-H226 lung
EKVX NSCLC = system: EKVX NSCLC
CCRF-CEM leukemia = system: CCRF-CEM leukemia
DU-145 prostate = system: DU-145 prostate
786-0 renal = system: 786-0 renal
NCI/ADR-RES ovarian = system: NCI/ADR-RES ovarian
SF-539 CNS = system: SF-539 CNS
SK-MEL-2 melanoma = system: SK-MEL-2 melanoma
COLO 205 colon = system: COLO 205 colon
A549 NSCLC = system: A549 NSCLC
OVCAR-8 ovarian = system: OVCAR-8 ovarian
HS 578T breast = system: HS 578T breast
NCI-H460 lung = system: NCI-H460 lung
TK-10 renal = system: TK-10 renal
CAKI-1 renal = system: CAKI-1 renal
UACC-257 melanoma = system: UACC-257 melanoma
LOX IMVI melanoma = system: LOX IMVI melanoma
HL-60(TB) leukemia = system: HL-60(TB) leukemia
RPMI-8226 leukemia = system: RPMI-8226 leukemia
SF-295 CNS = system: SF-295 CNS
HCC-2998 colon = system: HCC-2998 colon
NCI-H522 lung = system: NCI-H522 lung
OVCAR-5 ovarian = system: OVCAR-5 ovarian
HCT-116 colon = system: HCT-116 colon
MCF7 breast = system: MCF7 breast
HOP-92 NSCLC = system: HOP-92 NSCLC
HCT-15 colon = system: HCT-15 colon
OVCAR-3 ovarian = system: OVCAR-3 ovarian
MOLT-4 leukemia = system: MOLT-4 leukemia
MDA-MB-231 breast = system: MDA-MB-231 breast
HT29 colon = system: HT29 colon

Molecule `COC1=C(C)C(=O)N2[C@@H]1[C@H](c1ccccc1)OC21C=CC(=O)C=C1` has a GI50 (SK-MEL-28 melanoma) of 1.2 µM, a TGI (SK-MEL-28 melanoma) of 6.68 µM and a GI50 (KM12 colon) of 5.99 µM. The TGI (KM12 colon) was 12.9 µM, the GI50 (HOP-62 NSCLC) was 10.8 µM and the TGI (HOP-62 NSCLC) was 24.9 µM. The GI50 (SR leukemia) was 0.673 µM, the TGI (SR leukemia) was 15.5 µM and the GI50 (NCI-H23 lung) was 4.07 µM. It also gave a TGI (NCI-H23 lung) of 18.5 µM, a GI50 (T-47D breast) of 1.73 µM and a TGI (T-47D breast) of 9.99 µM. It also gave a GI50 (ACHN renal) of 0.658 µM, a TGI (ACHN renal) of 1.36 µM and a GI50 (MALME-3M melanoma) of 1.08 µM. It also gave a TGI (MALME-3M melanoma) of 4.32 µM, a GI50 (BT-549 breast) of 2.97 µM and a TGI (BT-549 breast) of 9.47 µM. The GI50 (SK-OV-3 ovarian) was greater than 41.9 µM, the TGI (SK-OV-3 ovarian) was greater than 100 µM and the GI50 (UO-31 renal) was 1.31 µM. For the same molecule, the TGI (UO-31 renal) was 3.88 µM, the GI50 (SNB-75 CNS) was 12.1 µM and the TGI (SNB-75 CNS) was 50 µM. It also gave a GI50 (SNB-19 CNS) of 42.8 µM, a TGI (SNB-19 CNS) greater than 100 µM and a GI50 (SF-268 CNS) of 8.89 µM. For the same molecule, the TGI (SF-268 CNS) was 31.9 µM, the GI50 (IGROV1 ovarian) was 6.83 µM and the TGI (IGROV1 ovarian) was 21.7 µM. The GI50 (PC-3 prostate) was 7.81 µM, the TGI (PC-3 prostate) was greater than 32 µM and the GI50 (OVCAR-4 ovarian) was 3.51 µM. It also gave a TGI (OVCAR-4 ovarian) of 16.6 µM, a GI50 (MDA-MB-435) of 1.97 µM and a TGI (MDA-MB-435) of 7.32 µM. The GI50 (K-562 leukemia) was 1.11 µM, the TGI (K-562 leukemia) was greater than 67 µM and the GI50 (SK-MEL-5 melanoma) was 5.05 µM. For the same molecule, the TGI (SK-MEL-5 melanoma) was 9.94 µM, the GI50 (SW-620 colon) was 0.923 µM and the TGI (SW-620 colon) was 2.78 µM. It also gave a GI50 (RXF 393 renal) of 1.42 µM, a TGI (RXF 393 renal) of 6.26 µM and a GI50 (A498 renal) of 27.4 µM. It also gave a TGI (A498 renal) greater than 89.4 µM, a GI50 (U251 CNS) of 5.61 µM and a TGI (U251 CNS) of 11 µM. It also gave a GI50 (M14 melanoma) of 4.39 µM, a TGI (M14 melanoma) of 12.5 µM and a GI50 (SN12C renal) of 3.64 µM. The TGI (SN12C renal) was 27.7 µM, the GI50 (UACC-62 melanoma) was 1.35 µM and the TGI (UACC-62 melanoma) was 5.51 µM. It also gave a GI50 (NCI-H226 lung) of 9.79 µM, a TGI (NCI-H226 lung) greater than 31.1 µM and a GI50 (EKVX NSCLC) of 10.7 µM. For the same molecule, the TGI (EKVX NSCLC) was greater than 33.8 µM, the GI50 (CCRF-CEM leukemia) was 0.925 µM and the TGI (CCRF-CEM leukemia) was 3.87 µM. It also gave a GI50 (DU-145 prostate) of 3.69 µM, a TGI (DU-145 prostate) of 19.1 µM and a GI50 (786-0 renal) of 2.86 µM. For the same molecule, the TGI (786-0 renal) was 8.22 µM, the GI50 (NCI/ADR-RES ovarian) was 3.36 µM and the TGI (NCI/ADR-RES ovarian) was greater than 47.4 µM. For the same molecule, the GI50 (SF-539 CNS) was 4.73 µM, the TGI (SF-539 CNS) was 11.5 µM and the GI50 (SK-MEL-2 melanoma) was 6.92 µM. For the same molecule, the TGI (SK-MEL-2 melanoma) was 19.6 µM, the GI50 (COLO 205 colon) was 2.56 µM and the TGI (COLO 205 colon) was 7.81 µM. The GI50 (A549 NSCLC) was 10.8 µM, the TGI (A549 NSCLC) was 38.9 µM and the GI50 (OVCAR-8 ovarian) was 1.1 µM. The TGI (OVCAR-8 ovarian) was greater than 36.5 µM, the GI50 (HS 578T breast) was 12.5 µM and the TGI (HS 578T breast) was greater than 40.9 µM. For the same molecule, the GI50 (NCI-H460 lung) was 8.13 µM, the TGI (NCI-H460 lung) was 21.8 µM and the GI50 (TK-10 renal) was 1.41 µM. It also gave a TGI (TK-10 renal) of 6.29 µM, a GI50 (CAKI-1 renal) of 0.804 µM and a TGI (CAKI-1 renal) of 2.39 µM. For the same molecule, the GI50 (UACC-257 melanoma) was 4.97 µM, the TGI (UACC-257 melanoma) was 15.5 µM and the GI50 (LOX IMVI melanoma) was 0.757 µM. It also gave a TGI (LOX IMVI melanoma) of 2.69 µM, a GI50 (HL-60(TB) leukemia) of 0.922 µM and a TGI (HL-60(TB) leukemia) of 4.57 µM. The GI50 (RPMI-8226 leukemia) was 1.33 µM, the TGI (RPMI-8226 leukemia) was 8.44 µM and the GI50 (SF-295 CNS) was 15.5 µM. The TGI (SF-295 CNS) was 46.9 µM, the GI50 (HCC-2998 colon) was 5.86 µM and the TGI (HCC-2998 colon) was 10.9 µM. For the same molecule, the GI50 (NCI-H522 lung) was 0.555 µM, the TGI (NCI-H522 lung) was 1.35 µM and the GI50 (OVCAR-5 ovarian) was 3.78 µM. The TGI (OVCAR-5 ovarian) was 11.6 µM, the GI50 (HCT-116 colon) was 0.984 µM and the TGI (HCT-116 colon) was 3.81 µM. For the same molecule, the GI50 (MCF7 breast) was 1.07 µM, the TGI (MCF7 breast) was 5.39 µM and the GI50 (HOP-92 NSCLC) was 2.48 µM. For the same molecule, the TGI (HOP-92 NSCLC) was 7.65 µM, the GI50 (HCT-15 colon) was 0.697 µM and the TGI (HCT-15 colon) was 2.21 µM. For the same molecule, the GI50 (OVCAR-3 ovarian) was 1.09 µM, the TGI (OVCAR-3 ovarian) was 3.74 µM and the GI50 (MOLT-4 leukemia) was 2.23 µM. For the same molecule, the TGI (MOLT-4 leukemia) was 11 µM, the GI50 (MDA-MB-231 breast) was 2.77 µM and the TGI (MDA-MB-231 breast) was 9.27 µM. For the same molecule, the GI50 (HT29 colon) was 1.28 µM and the TGI (HT29 colon) was 4.28 µM.
